{"source": "patent US9393250B2", "about": "“Phthalocyanine compounds useful as RecA inhibitors and methods of using same” (University of Saskatchewan, priority 2012, dated 2016)", "key": {"ATCC25922 cells": {"test_system": "ATCC25922 cells", "assay": "Neutropenic murine bacterial thigh infection model", "format": "in vivo, Escherichia coli", "method": "Six-eight week-old, specific-pathogen-free, female CD-1 mice (weight, 25-35 g) were rendered neutropenic by intraperitoneal injection with 150 mg/kg cylcophosphamide (Sigma) four days before infection and 100 mg/kg cyclophosphamide 24 hours before infection. LB broth cultures inoculated from fresh ATCC25922 colonies and cells were grown to the log phase (OD600 of approximately 0.3) and diluted 1:1000 in LB broth. Thigh infections were produced by injecting 50 μl (approximately 10^6 CFUs) of diluted cultures into halothane-anesthetized mice. One group of mice was administrated inteperitoneal injection of 4,4-Fe-PcTs in conjunction with the second dose of cyclophosphamide (24 hours prior infection) (4,4-Fe-PcTs (pre)+CFX). Starting two hours after infection (defined as time zero), mice were administered subcutaneous injections of either 1 mg/kg ciprofloxacin alone (CFX) or co-treatment of 1 mg/kg ciprofloxacin with interperitoneal injection of 10 mg/kg 4,4-Fe-PcTs (4,4-Fe-PcTs+CFX and 4,4-Fe-PcTs (pre)+CFX) every 24 hours for 3 days. After 48 and 72 hours, three mice from each group were sacrificed, and their thighs removed and homogenized to determine the number of viable bacterial cells for both ciprofloxacin-sensitive and ciprofloxacin-resistant ATCC25922 cells. Serial dilutions of homogenates of the infected thigh were plated on LB agar (CFX Sensitive) and LB agar plates containing ciprofloxacin (40 nM) (CFX Resistant) to count viable cells for each of the three treatment groups."}, "ATCC29522 cells": {"test_system": "ATCC29522 cells", "assay": "Biofilm formation assay (crystal violet)", "format": "cell-based, Escherichia coli", "details": "Fe-PcTs 25 μM; ciprofloxacin 40 nM; plastic surface, 96-well plate", "method": "Biofilm formation on a plastic surface was analyzed using a 96-well plate (Falcon) as described previously. ATCC29522 cells were diluted in LB broth to 1×10^5 CFUs/ml. A 100 μl aliquot of cells was added to each well in the plate. Ciprofloxacin (CFX) was then added at a final concentration of 40 nM to each well and plates were incubated at 37° C. for 20 hours. Wells were aspirated and washed three times with 150 μl of PBS. Wells were stained with 120 μl of 0.1% crystal violet (Fisher) for 20 minutes. The crystal violet stain was aspirated and wells were washed three times with 150 μl of PBS. The plate was air-dried and the dye bound to adherent cells was resolubilized with 150 μl of 30% (v/v) glacial acetic acid (Fisher). The plate was incubated at room temperature for 20 minutes with shaking. The biofilm formation was quantified by measuring the OD600 nm using a plate reader."}, "E. coli strain ATCC25922": {"test_system": "E. coli strain ATCC25922", "assay": "Antibiotic sensitivity assay (CFUs/ml), E. coli", "format": "cell-based, Escherichia coli", "method": "Bacterial cultures were diluted to 10^5 cells/mL in LB broth (ATCC25922) or MH broth (ATCC27853, ATCC29212, ATCC29213). Antibiotics and/or phthalocyanines were added at indicated concentrations and the culture was incubated at 37° C. Samples were collected at 0, 24, 48, and 72 hours and plated on LB agar (ATCC25922) or tryptic soy blood agar (ATCC27853, ATCC29212, ATCC29213) to determine CFUs/ml.\nThe ability of 4,4-Fe-PcTs and 3,4-Cu-PcTs to potentiate the activity of ciprofloxacin (abbreviated “CFX”) was tested. Ciprofloxacin inhibits DNA gyrase in bacteria, causing accumulation of double-stranded DNA breaks (DSBs) and inducing the SOS response. The inventors characterized the ability of 4,4-Fe-PcTs and 3,4-Cu-PcTs to potentiate the activity of ciprofloxacin in the pathogenic E. coli strain ATCC25922, which was used previously by Cirz et al. to evaluate the role of SOS response proteins in antibiotic resistance."}, "ATCC25922 E. coli": {"test_system": "ATCC25922 E. coli", "assay": "Ciprofloxacin resistance assay and reconstruction assay (in vitro mutagenesis)", "format": "cell-based, Escherichia coli", "description": "An in vitro mutagenesis assay [1] was used to measure the ability of 4,4-Fe-PcTs to block the acquisition of ciprofloxacin-induced resistance in ATCC25922 E. coli. ATCC25922 cells were plated on media containing ciprofloxacin in the presence or absence of 4,4-Fe-PcTs and cultured for 10 days. Colonies that appeared early in the assay (days 1 and 2) are believed to arise from pre-existing ciprofloxacin resistance mutations [1]. Colonies that appear later in the incubation (days 3 to 8) are due to ciprofloxacin resistance mutations acquired during exposure to ciprofloxacin or pre-existing mutations with a slow growth phenotype [1].\nTo distinguish between these two types of mutants, a reconstruction assay that tests for the time it takes for colonies to appear in the presence of ciprofloxacin was used. Colonies that appear at least two days faster than they appeared in the original ciprofloxacin mutagenesis screen were classified as colonies that acquire resistance after exposure to ciprofloxacin [1]. Colonies that appeared in the same number of days as in the ciprofloxacin resistance assay were classified as colonies with pre-existing mutations [1].\nTwenty-five independent colonies of ATCC2592 were used to inoculate 25 LB broth cultures that were incubated at 37° C. for 25 hours. Viable cell counts in these cultures were determined by plating serial dilutions onto LB agar plates. One hundred microliters from each culture (˜10^8 cells) were plated in duplicate on LB agar containing ciprofloxacin (CFX) (40 nM) or ciprofloxacin (40 nM) and 4,4-Fe-PcTs (25 μM) (CFX+4,4-Fe-PcTs). Three additional 100 μL aliquots from three cultures were also plated on the same media to determine the number of viable cells per day. At 24 hour intervals, visible colonies were counted, removed from the plate, and stored at −80° C. for later use in the reconstruction assay and sequencing. Every 24 hours, in parallel with the resistance assay, small plugs of agar between visible colonies were excised from resistance assay plates. Agar plugs were homogenized in M9 buffer. Dilutions were plated in duplicate on LB plates to determine the total number of viable cells per day. The cells were also plated on LB containing CFX (40 nM) to determine if any CFX-resistant colonies remained after excision [1].\nReconstruction assays were used to determine whether ciprofloxacin resistant colonies were due to post-exposure mutation or due to mutation prior to ciprofloxacin exposure. Ciprofloxacin resistant clones isolated from the resistance assay were grown to saturation in LB media in 96 well plates. Cultures were then replica-plated in duplicate using a 96-pin replicator on LB plates to confirm viability and LB plates containing ciprofloxacin (40 nM) to confirm ciprofloxacin resistance. Ciprofloxacin-resistant clones that were isolated in the presence 4,4-Fe-PcTs were replica plated on LB and LB containing 4,4-Fe-PcTs (25 μM) and ciprofloxacin (40 nM). Clones that were resistant before ciprofloxacin exposure were defined as clones that formed colonies on the ciprofloxacin-containing media in the same number of days in the reconstruction assay as in the original resistance assay. Clones that mutated after exposure to ciprofloxacin were defined as clones that formed colonies earlier than in the original resistance assay [1].\nThe rate of ciprofloxacin resistance was defined as the number of ciprofloxacin-resistant mutants per viable cell that evolve as a function of time. […]"}, "E. coli ATCC25922": {"test_system": "E. coli ATCC25922", "assay": "Filamentation assay", "format": "cell-based, Escherichia coli", "details": "4,4-Fe-PcTs 25 μM; CFX 40 nM; three hours", "method": "Overnight cultures of E. coli ATCC25922 were grown in LB at 37° C. […] The cells were stained using the standard Gram staining technique and imaged using light microscopy at 100× magnification."}}}
{"substance": "iron (III) phthalocyanine-4,4′,4″,4′″-tetrasulfonic acid [4,4-Fe-PcTs]", "values": [{"measurement": "potentiation of ciprofloxacin by pretreatment versus co-treatment only", "setting": "ATCC25922 cells; 4,4-Fe-PcTs given 24 hours prior to infection plus co-treatment", "value": "potentiated the activity of ciprofloxacin more"}, {"measurement": "ciprofloxacin-resistant cells in thigh", "setting": "ATCC25922 cells; mice co-treated with ciprofloxacin 1 mg/kg and 4,4-Fe-PcTs 10 mg/kg i.p. (with or without pretreatment)", "value": "no ciprofloxacin resistant cells were observed"}, {"measurement": "effect on ciprofloxacin-induced biofilm formation", "setting": "ATCC29522 cells", "value": "reduced the ability of ciprofloxacin to induce"}, {"measurement": "CFUs on co-treatment with ampicillin", "setting": "E. coli strain ATCC25922; 4,4-Fe-PcTs 25 μM + AMP 40 μM, after 24 hours", "value": "eliminating all CFUs"}, {"measurement": "effect on activity of chloramphenicol (bacteriostatic)", "setting": "E. coli strain ATCC25922; 4,4-Fe-PcTs 25 μM + CAM 46 μM", "value": "very slight effect"}, {"measurement": "CFUs on co-treatment with ciprofloxacin", "setting": "E. coli strain ATCC25922; 4,4-Fe-PcTs 25 μM + CFX 40 nM, after 24 hours", "value": "eliminating all CFUs"}, {"measurement": "CFUs on co-treatment with kanamycin", "setting": "E. coli strain ATCC25922; 4,4-Fe-PcTs 25 μM + KAN 43 μM, after 24 hours", "value": "eliminating all CFUs"}, {"measurement": "effect on activity of spectinomycin (bacteriostatic)", "setting": "E. coli strain ATCC25922; 4,4-Fe-PcTs 25 μM + SPECT 808 μM", "value": "very slight effect"}, {"measurement": "effect on activity of tetracycline (bacteriostatic)", "setting": "E. coli strain ATCC25922; 4,4-Fe-PcTs 25 μM + TET 21 μM", "value": "very slight effect"}, {"measurement": "potentiation of ciprofloxacin activity", "setting": "E. coli strain ATCC25922; ciprofloxacin 40 nM", "value": "potentiated the activity of ciprofloxacin"}, {"measurement": "colony forming units (CFUs)", "setting": "E. coli strain ATCC25922; co-treated with ciprofloxacin 40 nM and compound at concentrations above 25 μM", "value": "no colony forming units (CFUs) were observed"}, {"measurement": "total number of viable and ciprofloxacin-resistant cells relative to ciprofloxacin alone", "setting": "ATCC25922 E. coli; 4,4-Fe-PcTs 25 μM + ciprofloxacin 40 nM", "value": "reduced"}, {"measurement": "ciprofloxacin resistant mutants over time", "setting": "ATCC25922 E. coli; cells treated with Fe-PcTs and ciprofloxacin", "value": "no ciprofloxacin resistant mutants were observed after day 4"}, {"measurement": "ciprofloxacin-resistant colonies caused by pre-existing mutations", "setting": "ATCC25922 E. coli; ciprofloxacin (40 nM) and 4,4-Fe-PcTs (25 μM)", "value": 60, "unit": "%"}, {"measurement": "effect on ciprofloxacin-induced in vitro filamentation", "setting": "E. coli ATCC25922", "value": "reduced the ability of ciprofloxacin to induce"}]}
